According to ChEMBL document CHEMBL4270563, “Neurogenic and neuroprotective donepezil-flavonoid hybrids with sigma-1 affinity and inhibition of key enzymes in Alzheimer's disease” (Eur J Med Chem, 2018):
Calls of active or inactive are those of the source. The rule behind the calls is not given here.

How the values were obtained:
[1] = target: T1, Acetylcholinesterase (Homo sapiens, UniProt P22303); assay: Inhibition of recombinant human AChE expressed in HEK293 cells using acetylthiocholine iodide as substrate pretreated for 5 mins followed by substrate addition and measured for 5 mins by Ellman's method
T1 sequence (P22303 whole entry): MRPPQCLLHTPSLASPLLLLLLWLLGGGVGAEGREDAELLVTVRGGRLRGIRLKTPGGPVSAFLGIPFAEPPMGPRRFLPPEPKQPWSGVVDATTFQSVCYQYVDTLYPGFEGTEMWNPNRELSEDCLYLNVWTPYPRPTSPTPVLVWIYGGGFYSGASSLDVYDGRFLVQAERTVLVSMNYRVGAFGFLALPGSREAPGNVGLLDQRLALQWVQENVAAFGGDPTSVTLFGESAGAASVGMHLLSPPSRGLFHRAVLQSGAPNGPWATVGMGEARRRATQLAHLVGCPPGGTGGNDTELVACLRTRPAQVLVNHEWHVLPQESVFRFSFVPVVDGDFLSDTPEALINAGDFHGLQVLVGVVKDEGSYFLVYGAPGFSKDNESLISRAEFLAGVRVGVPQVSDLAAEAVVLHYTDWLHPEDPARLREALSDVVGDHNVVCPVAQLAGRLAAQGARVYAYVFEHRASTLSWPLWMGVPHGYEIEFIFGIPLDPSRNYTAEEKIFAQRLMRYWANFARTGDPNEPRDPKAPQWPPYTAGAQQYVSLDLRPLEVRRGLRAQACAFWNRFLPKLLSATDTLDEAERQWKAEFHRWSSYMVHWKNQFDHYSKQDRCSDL

[2] = target: Cholinesterase (Homo sapiens, UniProt P06276); assay: Inhibition of human serum BuChE using butyrylthiocholine as substrate pretreated for 5 mins followed by substrate addition and measured for 5 mins by Ellman's method
Chain of Cholinesterase (P06276 whole entry): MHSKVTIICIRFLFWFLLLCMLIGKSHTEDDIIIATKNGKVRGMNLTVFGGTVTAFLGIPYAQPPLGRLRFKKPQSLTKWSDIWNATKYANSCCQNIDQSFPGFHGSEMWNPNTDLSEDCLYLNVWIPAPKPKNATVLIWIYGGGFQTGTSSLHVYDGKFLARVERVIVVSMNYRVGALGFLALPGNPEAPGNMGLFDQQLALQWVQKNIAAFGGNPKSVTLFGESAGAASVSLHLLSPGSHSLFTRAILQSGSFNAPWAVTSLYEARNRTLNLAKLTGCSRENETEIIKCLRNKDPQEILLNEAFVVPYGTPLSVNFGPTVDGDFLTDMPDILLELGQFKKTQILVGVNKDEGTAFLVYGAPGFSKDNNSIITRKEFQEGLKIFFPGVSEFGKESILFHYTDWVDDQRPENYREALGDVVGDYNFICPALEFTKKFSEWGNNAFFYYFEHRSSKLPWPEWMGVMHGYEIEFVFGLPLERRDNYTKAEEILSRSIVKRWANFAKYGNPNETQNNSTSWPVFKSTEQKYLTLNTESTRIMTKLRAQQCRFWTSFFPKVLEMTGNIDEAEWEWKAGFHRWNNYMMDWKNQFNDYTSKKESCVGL

[3] = species: Homo sapiens; assay: Selectivity index, ratio of IC50 for human serum BuChE to IC50 for recombinant human AChE expressed in HEK293 cells; type: cell-based
[4] = target: T2, Polyunsaturated fatty acid 5-lipoxygenase (Homo sapiens, UniProt P09917); assay: Inhibition of human 5-lipoxygenase using arachidonic acid as substrate pretreated for 10 mins followed by substrate and ATP addition and measured after 20 mins by H2DCFDA probe based fluorescence assay
T2 sequence (P09917 whole entry): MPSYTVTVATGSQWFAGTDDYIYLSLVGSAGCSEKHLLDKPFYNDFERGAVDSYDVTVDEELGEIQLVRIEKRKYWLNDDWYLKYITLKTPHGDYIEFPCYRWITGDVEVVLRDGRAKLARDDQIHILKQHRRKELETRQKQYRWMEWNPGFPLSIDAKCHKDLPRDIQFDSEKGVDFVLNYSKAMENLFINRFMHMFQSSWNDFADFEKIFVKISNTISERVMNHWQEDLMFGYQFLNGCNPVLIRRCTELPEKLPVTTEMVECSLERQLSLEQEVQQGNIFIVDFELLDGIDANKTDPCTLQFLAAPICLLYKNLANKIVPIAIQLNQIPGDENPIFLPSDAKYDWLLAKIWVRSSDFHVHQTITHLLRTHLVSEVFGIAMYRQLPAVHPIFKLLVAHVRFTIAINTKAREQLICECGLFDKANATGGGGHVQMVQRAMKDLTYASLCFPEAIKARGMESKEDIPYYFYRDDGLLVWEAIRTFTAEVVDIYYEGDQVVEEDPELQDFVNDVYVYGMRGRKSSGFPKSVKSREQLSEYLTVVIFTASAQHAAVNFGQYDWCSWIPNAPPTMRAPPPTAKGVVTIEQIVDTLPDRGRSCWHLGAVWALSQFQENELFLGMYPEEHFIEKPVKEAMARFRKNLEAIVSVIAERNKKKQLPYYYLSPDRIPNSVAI

[5] = target: T3, Polyunsaturated fatty acid 5-lipoxygenase (Homo sapiens) (UniProt P09917); assay: Inhibition of human 5-lipoxygenase at 10 uM using arachidonic acid as substrate pretreated for 10 mins followed by substrate and ATP addition and measured after 20 mins by […] probe based fluorescence assay relative to control
T3 sequence (whole entry): T2 sequence (P09917 whole entry)

[6] = target: T4, Amine oxidase [flavin-containing] A (Homo sapiens, UniProt P21397); assay: Inhibition of recombinant human MAO-A expressed in baculovirus infected BTI insect cells using p-tyramine as substrate pretreated for 15 mins followed by substrate addition by horse-radish peroxidase/amplex red-based fluorescence method
T4 sequence (P21397 whole entry): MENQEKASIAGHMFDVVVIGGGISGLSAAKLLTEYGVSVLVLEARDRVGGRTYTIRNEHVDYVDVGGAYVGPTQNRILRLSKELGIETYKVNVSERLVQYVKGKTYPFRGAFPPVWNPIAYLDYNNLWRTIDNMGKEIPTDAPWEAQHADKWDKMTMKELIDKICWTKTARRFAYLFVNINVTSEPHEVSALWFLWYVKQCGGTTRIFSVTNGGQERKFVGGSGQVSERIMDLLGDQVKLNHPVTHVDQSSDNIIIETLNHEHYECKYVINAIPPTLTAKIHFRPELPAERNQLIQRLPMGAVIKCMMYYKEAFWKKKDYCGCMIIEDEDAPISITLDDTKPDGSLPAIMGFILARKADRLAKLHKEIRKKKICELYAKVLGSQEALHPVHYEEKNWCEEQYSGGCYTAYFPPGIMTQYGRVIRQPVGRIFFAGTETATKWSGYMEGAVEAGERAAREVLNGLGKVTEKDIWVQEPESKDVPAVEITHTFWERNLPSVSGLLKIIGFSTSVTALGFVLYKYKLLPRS

[7] = target: T5, Amine oxidase [flavin-containing] B (Homo sapiens, UniProt P27338); assay: biochemical; type: cell-based
T5 sequence (P27338 whole entry): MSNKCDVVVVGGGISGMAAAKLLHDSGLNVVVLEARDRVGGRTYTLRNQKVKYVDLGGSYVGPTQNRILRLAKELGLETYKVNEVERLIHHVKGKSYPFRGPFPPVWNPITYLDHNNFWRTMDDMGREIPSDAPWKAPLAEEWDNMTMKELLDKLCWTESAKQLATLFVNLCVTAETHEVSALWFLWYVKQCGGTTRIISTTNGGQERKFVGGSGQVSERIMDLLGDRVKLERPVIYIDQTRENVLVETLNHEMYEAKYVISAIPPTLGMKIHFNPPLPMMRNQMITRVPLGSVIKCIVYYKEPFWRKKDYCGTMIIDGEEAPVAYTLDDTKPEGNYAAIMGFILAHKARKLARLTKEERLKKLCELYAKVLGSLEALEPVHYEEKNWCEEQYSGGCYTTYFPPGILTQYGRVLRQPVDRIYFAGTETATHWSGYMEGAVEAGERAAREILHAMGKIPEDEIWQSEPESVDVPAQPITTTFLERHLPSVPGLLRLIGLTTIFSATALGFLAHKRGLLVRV
Description: Inhibition of recombinant human MAO-B expressed in baculovirus infected BTI insect cells using p-tyramine as substrate pretreated for 15 mins followed by substrate addition by horse-radish peroxidase/amplex red-based fluorescence method

[8] = Antioxidant activity assessed as trolox equivalent of AAPH-induced radical scavenging activity pretreated for 15 mins followed by APPH challenge measured every minute for 80 mins by ORAC-FL assay; type: functional
[9] = target: Sigma non-opioid intracellular receptor 1 (Cavia porcellus, UniProt Q60492); assay: Displacement of (+)-[3H]pentazocine from guinea pig brain membrane sigma1 receptor by liquid scintillation counting method
Chain of Sigma non-opioid intracellular receptor 1 (Q60492 whole entry): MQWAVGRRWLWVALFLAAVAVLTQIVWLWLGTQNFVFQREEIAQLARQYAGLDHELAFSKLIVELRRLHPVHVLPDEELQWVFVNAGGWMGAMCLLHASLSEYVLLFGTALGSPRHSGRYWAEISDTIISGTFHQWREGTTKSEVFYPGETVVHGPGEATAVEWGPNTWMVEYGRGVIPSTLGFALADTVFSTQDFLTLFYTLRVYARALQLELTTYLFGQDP

[10] = target: T6, Sigma intracellular receptor 2 (Rattus norvegicus, UniProt Q5U3Y7); assay: Displacement of [3H]DTG from sigma2 receptor in rat liver membranes by liquid scintillation counting method; type: cell membranes, Membrane
T6 sequence (Q5U3Y7 whole entry): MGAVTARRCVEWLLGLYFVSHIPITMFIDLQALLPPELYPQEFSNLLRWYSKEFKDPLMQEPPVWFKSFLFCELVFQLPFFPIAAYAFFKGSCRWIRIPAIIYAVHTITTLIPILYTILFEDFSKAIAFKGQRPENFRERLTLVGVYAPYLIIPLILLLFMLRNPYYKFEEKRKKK

[11] = Selectivity ratio of Ki for displacement of [3H]DTG from sigma2 receptor in rat liver membranes to Ki for displacement of (+)-[3H]pentazocine from guinea pig brain membrane sigma1 receptor; type: cell membranes
[12] = tested on: SH-SY5Y; assay: Neuroprotective activity against rotenone/oligomycin A-induced mitochondrial oxidative stress in human SH-SY5Y cells at 0.1 uM after 24 hrs by MTT assay relative to control; type: functional
[13] = tested on: SH-SY5Y; assay: Neuroprotective activity against rotenone/oligomycin A-induced mitochondrial oxidative stress in human SH-SY5Y cells at 0.3 uM after 24 hrs by MTT assay relative to control; type: functional
[14] = tested on: SH-SY5Y; assay: Neuroprotective activity against rotenone/oligomycin A-induced mitochondrial oxidative stress in human SH-SY5Y cells at 1 uM after 24 hrs by MTT assay relative to control; type: functional
[15] = tested on: SH-SY5Y; assay: Neuroprotective activity against rotenone/oligomycin A-induced mitochondrial oxidative stress in human SH-SY5Y cells at 3 uM after 24 hrs by MTT assay relative to control; type: functional
[16] = in vitro; conditions: PAMPA, pH 7.4
Description: Permeability of the compound in pH 7.4 PBS by PAMPA-BBB assay

[17] = tested on: SH-SY5Y; assay: Neuroprotective activity against rotenone/oligomycin A-induced mitochondrial oxidative stress in human SH-SY5Y cells at 10 nM after 24 hrs by MTT assay relative to control; type: functional
[18] = species: Homo sapiens; assay: Selectivity ratio of IC50 for recombinant human MAO-A expressed in baculovirus infected BTI insect cells to IC50 for recombinant human MAO-B expressed in baculovirus infected BTI insect cells
[19] = target: T1, Acetylcholinesterase; assay: Inhibition of recombinant human AChE expressed in HEK293 cells using varying levels of acetylthiocholine iodide as substrate by Lineweaver-burk plot analysis
[20] = species: Homo sapiens; assay: Selectivity ratio of IC50 for recombinant human MAO-B expressed in baculovirus infected BTI insect cells to IC50 for recombinant human MAO-A expressed in baculovirus infected BTI insect cells
[21] = Antioxidant activity assessed as trolox equivalent of AAPH-induced radical scavenging activity at 10 uM pretreated for 15 mins followed by APPH challenge measured every minute for 80 mins by ORAC-FL assay; type: functional
[22] = species: Mus musculus; assay: Neurogenic activity in C57BL/6 mouse subgranular zone neural stem cell-derived neurospheres assessed as differentiation of neural stem cells at 10 uM treated for 7 days followed by poly-L-lysine addition and measured after 3 days by DAPI staining based confocal microscopic analysis; type: functional
[23] = species: Mus musculus; assay: Neurogenic activity in C57BL/6 mouse subgranular zone neural stem cell-derived neurospheres assessed as neuronal maturation at 10 uM treated for 7 days followed by poly-L-lysine addition and measured after 3 days by DAPI staining based confocal microscopic analysis; type: functional

For O=C(NCCC1CCN(Cc2ccccc2)CC1)c1cc(=O)c2cc(O)ccc2o1, the IC50 [1] was 0.091 µM, the IC50 [2] was > 10 µM and the Ratio IC50 [3] was > 110. For the same compound, the IC50 [4] was > 100 µM, the inhibition [5] was 36% and the IC50 [6] was 39.3 µM. For the same compound, the IC50 [7] was 51.2 µM, the Activity (umolequiv/umol) [8] was 1.2 and the Ki [9] was 0.0421 µM. The Ki [10] was 0.345 µM, the Ratio Ki [11] was 8 and the Activity [12] was 15%. For the same compound, the Activity [13] was 18.8%, the Activity [14] was 8.6% and the Activity [15] was 15.2%. It also gave a Papp [16] of 2.8 ×10⁻⁶ cm/s.

For COc1cc2oc(C(=O)OCC3CCN(Cc4ccccc4)CC3)cc(=O)c2cc1OC, the IC50 [1] was 0.3 µM, the IC50 [2] was > 10 µM and the Ratio IC50 [3] was > 33. The Activity [12] was 19.4%, the Activity [13] was 19.6% and the Activity [14] was 6.8%. The Activity [15] was 12.4% and the Papp [16] was 3.2 ×10⁻⁶ cm/s.

COc1ccc2[nH]cc(CCNC(C)=O)c2c1 [MELATONIN] gave an Activity [17] of 42.1%.

With O=C(NCCC1CCN(Cc2ccccc2)CC1)c1cc(=O)c2cccc(O)c2[nH]1 the IC50 [1] was 1.15 µM, the IC50 [2] was > 10 µM and the Ratio IC50 [3] was > 8.7. The IC50 [4] was 77.6 µM, the IC50 [6] was > 100 µM and the IC50 [7] was 13.6 µM. For the same compound, the Ratio IC50 [18] was 7, the Activity (umolequiv/umol) [8] was 1 and the Ki [9] was 0.0474 µM. The Ki [10] was 0.29 µM, the Ratio Ki [11] was 6 and the Papp [16] was 4.9 ×10⁻⁶ cm/s.

With COc1ccc2oc(C(=O)NC3CCN(Cc4ccccc4)CC3)cc(=O)c2c1 the IC50 [1] was 0.97 µM, the IC50 [2] was > 10 µM and the Ratio IC50 [3] was > 10. For the same compound, the Activity [12] was 9.8%, the Activity [13] was 13.9% and the Activity [14] was 14.6%. The Activity [15] was 8.6% and the Papp [16] was 7.7 ×10⁻⁶ cm/s.

Compound O=C(NCCC1CCN(Cc2ccccc2)CC1)c1cc(=O)c2cc([N+](=O)[O-])ccc2o1 has an IC50 [1] of 0.021 µM, an IC50 [2] of 9.3 µM and a Ratio IC50 [3] of 443. The Ki [19] was 0.012 µM, the IC50 [4] was 9.8 µM and the IC50 [6] was 20.5 µM. The IC50 [7] was > 100 µM, the Ratio IC50 [20] was > 5 and the Activity [21] was “inactive”. For the same compound, the Ki [9] was 0.00098 µM, the Ki [10] was 0.287 µM and the Ratio Ki [11] was 293. For the same compound, the Papp [16] was 8.2 ×10⁻⁶ cm/s.

In the case of O=C(NCCC1CCN(Cc2ccccc2)CC1)c1cc(=O)c2cc(O)ccc2[nH]1, the IC50 [1] is reported as 0.3 µM, the IC50 [2] is reported as 9.88 µM and the Ratio IC50 [3] is reported as 33. The IC50 [6] was 51.3 µM, the IC50 [7] was 59.9 µM and the Activity (umolequiv/umol) [8] was 1.4. It also gave an Activity [12] of 18.6%, an Activity [13] of 13.7% and an Activity [14] of 17.4%. For the same compound, the Activity [15] was 29.7% and the Papp [16] was 5.1 ×10⁻⁶ cm/s.

With COc1cc2oc(C(=O)NC3CCN(Cc4ccccc4)CC3)cc(=O)c2cc1OC the IC50 [1] was 0.66 µM, the IC50 [2] was > 10 µM and the Ratio IC50 [3] was > 15. It also gave an Activity [12] of 5.7%, an Activity [13] of 18% and an Activity [14] of 12.3%. It also gave an Activity [15] of 12.6% and a Papp [16] of 8.1 ×10⁻⁶ cm/s.

With COc1cc2oc(C(=O)NCCC3CCN(Cc4ccccc4)CC3)cc(=O)c2cc1OC the IC50 [1] was 0.046 µM, the IC50 [2] was > 10 µM and the Ratio IC50 [3] was > 217. The Ki [19] was 0.039 µM, the IC50 [4] was 74.3 µM and the IC50 [6] was 15.3 µM. The IC50 [7] was 5.2 µM, the Activity [21] was “inactive” and the Ki [9] was 0.0374 µM. The Ki [10] was 0.239 µM, the Ratio Ki [11] was 6 and the Activity [12] was 11.5%. For the same compound, the Activity [13] was 18.1%, the Activity [14] was 17.1% and the Activity [15] was 22.4%. The Activity [22] was “Active”, the Activity [23] was “Active” and the Papp [16] was 5.9 ×10⁻⁶ cm/s.
